Test systems include TK-10; MDA-MB-435; OVCAR-8; LOX IMVI; KM12; RPMI-8226; SN12C; CAKI-1; HOP-62; NCI-H522; MDA-N; SK-MEL-2; CCRF-CEM; OVCAR-5; HCC 2998; HOP-92; MDA-MB-231; ACHN; K562; 786-0.
Common to all, as to assay: growth of human tumour cells (NCI), 48 h

Each structure is given as a SMILES string.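 Test compounds were applied to cells in 96-well plates for 48 hours at 5 doses. At the GI50, growth is halved.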 Calls of active or inactive are those of the source. No stated cut-off is given here; in the data, active = GI50 up to about 1.1 µM and inactive = higher.

As for `COc1ccc(/N=N\c2c(N)nn3c(SC)c(C#N)c(N)nc23)cc1`, the GI50 with TK-10 is 19.1 µM (inactive); in the assay with MDA-MB-435, 13.3 µM (inactive); in the assay on OVCAR-8 it was 5.04 µM (inactive); with LOX IMVI, 1.74 µM (inactive); in the assay on KM12, 15.1 µM (inactive); in the assay on RPMI-8226, 2.92 µM (inactive). The GI50 in the assay on SN12C is 5.27 µM (inactive); with CAKI-1 it was 10.9 µM (inactive); with HOP-62, 22.3 µM (inactive); with NCI-H522, 16.5 µM (inactive); with MDA-N, 13.6 µM (inactive); with SK-MEL-2, 2.76 µM (inactive). Besides, the GI50 with CCRF-CEM is 2.02 µM (inactive); with OVCAR-5, 17.6 µM (inactive); in the assay with HCC 2998, 3.96 µM (inactive); in the assay with HOP-92 it was 9.4 µM (inactive); with MDA-MB-231 it was 2.32 µM (inactive); in the assay on ACHN it was 14.6 µM (inactive). In addition, the GI50 is 2.16 µM (inactive) in the assay with K562 and 3.67 µM (inactive) with 786-0.
Consider `COC(=O)C1C(=O)N(C)C(=O)N2CCCC12` (configuration not stated), for which the GI50 in the assay on TK-10, in the assay on MDA-MB-435, in the assay on OVCAR-8, in the assay on LOX IMVI, in the assay with KM12 and in the assay on RPMI-8226 was > 100 µM (inactive) in each case. Moreover, the GI50 with CAKI-1, in the assay with HOP-62, in the assay with NCI-H522, in the assay on MDA-N, in the assay with SK-MEL-2 and with CCRF-CEM was > 100 µM (inactive) in each case. Also, the GI50 with OVCAR-5, in the assay on HCC 2998, with HOP-92, in the assay on MDA-MB-231, with ACHN and with K562 was > 100 µM (inactive) in each case. In the assay on 786-0, the GI50 was > 100 µM (inactive).
For `CCN1CC2=C(NC(=S)NC2c2cc(OC)c(OC)c(OC)c2)/C(=C/c2cc(OC)c(OC)c(OC)c2)C1` (configuration not stated), the GI50 in the assay with TK-10 is 36.1 µM (inactive); with MDA-MB-435 it was 28.3 µM (inactive); in the assay with OVCAR-8 it was 21.7 µM (inactive); in the assay on LOX IMVI it was 37.2 µM (inactive); with KM12, 98.6 µM (inactive); in the assay with RPMI-8226 it was 14.1 µM (inactive). Further, the GI50 is 19.4 µM (inactive) with CAKI-1; 50.6 µM (inactive) in the assay on HOP-62; 10.6 µM (inactive) in the assay on NCI-H522; 25.8 µM (inactive) with MDA-N; 70.8 µM (inactive) in the assay with SK-MEL-2; 37.4 µM (inactive) in the assay with CCRF-CEM. The GI50 is 14.4 µM (inactive) with OVCAR-5; 29.8 µM (inactive) with HCC 2998; 18.1 µM (inactive) in the assay on HOP-92; 34.1 µM (inactive) in the assay on MDA-MB-231; 44.9 µM (inactive) in the assay with ACHN; 17.3 µM (inactive) in the assay with K562. Moreover, the GI50 in the assay on 786-0 was 28.4 µM (inactive).
Regarding `CC(=O)Oc1ccc(N2C(=O)C3c4[nH]c5ccccc5c4C4CCC(C(C)(C)C)CC4C3C2=O)cc1` (configuration not stated), the GI50 was 3.33 µM (inactive) with TK-10; 10.4 µM (inactive) in the assay on MDA-MB-435; 3.84 µM (inactive) with OVCAR-8; 4.41 µM (inactive) in the assay with LOX IMVI; 6.68 µM (inactive) in the assay on RPMI-8226; 2.14 µM (inactive) in the assay with SN12C. Besides, the GI50 is 5.31 µM (inactive) with CAKI-1; 3.79 µM (inactive) with HOP-62; 4.45 µM (inactive) in the assay with NCI-H522; 4.67 µM (inactive) in the assay on MDA-N; 5.13 µM (inactive) in the assay with SK-MEL-2; 10 µM (inactive) in the assay with CCRF-CEM. The GI50 in the assay with OVCAR-5 was 2.63 µM (inactive); in the assay on HCC 2998, 2.68 µM (inactive); in the assay with HOP-92, 3.03 µM (inactive); in the assay on MDA-MB-231, 2.28 µM (inactive); in the assay on ACHN it was 3.55 µM (inactive); in the assay on K562, 3.26 µM (inactive). The GI50 in the assay with 786-0 was 2.1 µM (inactive).
With `COC(=O)c1nc2c3c(cccc3c1C(=O)OC)Nc1ccccc1-2`, the GI50 with TK-10 was 40.9 µM (inactive); with MDA-MB-435 it was 83.6 µM (inactive); in the assay on LOX IMVI, 32.3 µM (inactive); in the assay on KM12, 28.2 µM (inactive); in the assay with RPMI-8226 it was 53 µM (inactive); with SN12C, 33.4 µM (inactive). For the same compound, the GI50 with CAKI-1 was 50.2 µM (inactive); in the assay on HOP-62, 23.6 µM (inactive); in the assay on NCI-H522, 10.7 µM (inactive); with MDA-N, 46.2 µM (inactive); in the assay on SK-MEL-2 it was 28.1 µM (inactive); in the assay on CCRF-CEM, 13.2 µM (inactive). Besides, the GI50 in the assay on OVCAR-5 is > 100 µM (inactive); with HCC 2998, 42.3 µM (inactive); in the assay on HOP-92, 16.9 µM (inactive); with MDA-MB-231 it was 23.8 µM (inactive); in the assay with ACHN it was 36.6 µM (inactive); with K562, 54.1 µM (inactive). The GI50 in the assay with 786-0 was 27.5 µM (inactive).
As for `C[C@@H]1CC[C@@]2(OC1)O[C@H]1C[C@H]3[C@@H]4CC[C@H]5C[C@@H](OC6OC(CO)C(OC7OC(CO)C(O)C(OC8OCC(O)C(O)C8O)C7OC7OC(CO)C(O)C(O)C7O)C(O)C6O)[C@H](O)C[C@]5(C)[C@H]4CC[C@]3(C)[C@H]1[C@@H]2C` (some centres not stated), the GI50 was 4.36 µM (inactive) in the assay on TK-10; 13 µM (inactive) with MDA-MB-435; 2.97 µM (inactive) with OVCAR-8; 1.39 µM (inactive) in the assay on LOX IMVI; 8 µM (inactive) in the assay with KM12; 1.85 µM (inactive) in the assay on RPMI-8226. The GI50 was 2.21 µM (inactive) with CAKI-1; 1.42 µM (inactive) in the assay with HOP-62; 0.426 µM (active) in the assay on NCI-H522; 10.8 µM (inactive) with MDA-N; 9.08 µM (inactive) in the assay with SK-MEL-2; 0.693 µM (active) in the assay on CCRF-CEM. For the same compound, the GI50 in the assay with OVCAR-5 was 4.76 µM (inactive); with HCC 2998, 12.3 µM (inactive); in the assay with HOP-92, 23.6 µM (inactive); in the assay with MDA-MB-231 it was 1.76 µM (inactive); in the assay on ACHN, 2.75 µM (inactive); in the assay with K562 it was 2.11 µM (inactive). Besides, the GI50 with 786-0 was > 10 µM (inactive).
In the case of `CC1(C)N=C(N)N=C(N)N1c1cccc(CSc2ccccc2)c1`, the GI50 in the assay with TK-10 was 78.7 µM (inactive); with MDA-MB-435 it was 0.0813 µM (active); in the assay with OVCAR-8, 3.16 µM (inactive); in the assay with LOX IMVI it was 0.103 µM (active); in the assay on KM12, 0.718 µM (active); in the assay on RPMI-8226, 0.944 µM (active). The GI50 with SN12C is 0.0838 µM (active); in the assay on CAKI-1, 23.6 µM (inactive); with HOP-62 it was 6.4 µM (inactive); with NCI-H522 it was 0.318 µM (active); in the assay with MDA-N, 0.037 µM (active); in the assay with SK-MEL-2, 18.4 µM (inactive). For the same compound, the GI50 is 52.1 µM (inactive) in the assay with OVCAR-5; 73.1 µM (inactive) in the assay on HCC 2998; 32 µM (inactive) with HOP-92; > 100 µM (inactive) with MDA-MB-231; 34.4 µM (inactive) in the assay on ACHN; 0.774 µM (active) with K562. Besides, the GI50 with 786-0 is 0.0929 µM (active).
On to `CCCCCCCCCCCC[C@H](O)[C@H]1CC[C@H]([C@H](O)CCCC[C@H](O)CCCCC[C@@H](O)CC2=C[C@H](C)OC2=O)O1`, for which the GI50 is 1.77 µM (inactive) in the assay on TK-10; 1.4 µM (inactive) with MDA-MB-435; 2.26 µM (inactive) with OVCAR-8; 1.11 µM (active) in the assay with LOX IMVI; 3.51 µM (inactive) in the assay on KM12; > 10 µM (inactive) in the assay with RPMI-8226. Also, the GI50 in the assay with SN12C is 5.83 µM (inactive); in the assay on CAKI-1 it was 6.24 µM (inactive); with HOP-62, 6.3 µM (inactive); in the assay on NCI-H522 it was 5.21 µM (inactive); in the assay with MDA-N, 2.37 µM (inactive); in the assay on SK-MEL-2, 3.05 µM (inactive). Moreover, the GI50 with CCRF-CEM was 1.71 µM (inactive); in the assay with OVCAR-5, 17.7 µM (inactive); in the assay on HCC 2998, 17.4 µM (inactive); in the assay with HOP-92, 4.03 µM (inactive); in the assay on MDA-MB-231, 1.88 µM (inactive); in the assay with ACHN it was 1.08 µM (active). Also, the GI50 with K562 is 1.23 µM (inactive); with 786-0, 5.01 µM (inactive).
On to `Cc1c[nH]c2c(O)cc3c(c12)[C@H](CCl)CN3C(=O)c1cc2cc(NC(=O)Nc3ccc4[nH]c(C(=O)N5C[C@@H](CCl)c6c5cc(O)c5[nH]cc(C)c65)cc4c3)ccc2[nH]1` [BIZELESIN], for which the GI50 with MDA-MB-435 was 0.113 µM (active); with OVCAR-8 it was 2.62 µM (inactive); with LOX IMVI, 3.6 µM (inactive); in the assay with KM12 it was 12.1 µM (inactive); in the assay on RPMI-8226, 0.00131 µM (active); in the assay on SN12C, 0.378 µM (active). The GI50 with CAKI-1 was 9.16 µM (inactive); with HOP-62 it was 1.05 µM (active); with NCI-H522 it was < 0.001 µM (active); in the assay on MDA-N, 22.2 µM (inactive); in the assay on SK-MEL-2, 34.4 µM (inactive); in the assay on CCRF-CEM, 0.274 µM (active). In addition, the GI50 with OVCAR-5 was 0.00136 µM (active); in the assay with HCC 2998, 0.00109 µM (active); with HOP-92 it was 48.5 µM (inactive); in the assay on MDA-MB-231 it was 26.5 µM (inactive); in the assay on ACHN, 0.139 µM (active); in the assay on K562 it was 23.9 µM (inactive). Also, the GI50 in the assay on 786-0 was 4.9 µM (inactive).
As to `C=C1C/C(=C/C)C(=O)O[C@@H]2CCN3CC=C(COC(=O)[C@]1(C)O)[C@H]23` [SENECIPHYLLINE], the GI50 with TK-10, in the assay on MDA-MB-435, with OVCAR-8, in the assay on LOX IMVI, in the assay on KM12 and in the assay on RPMI-8226 was > 100 µM (inactive) throughout. The GI50 in the assay on CAKI-1, in the assay on HOP-62, with NCI-H522, in the assay with MDA-N, with SK-MEL-2 and in the assay with CCRF-CEM was > 100 µM (inactive) in each case. Besides, the GI50 in the assay on OVCAR-5, with HCC 2998, in the assay with HOP-92, in the assay with MDA-MB-231, with ACHN and in the assay with K562 was > 100 µM (inactive) throughout. Moreover, in the assay on 786-0, the GI50 was > 100 µM (inactive).

For the origin of these results see ChEMBL document CHEMBL1201862, “PubChem BioAssay data set” (2004).
